From patent US4737494A, “1,3-dithiole derivatives and pharmaceutical compositions” (priority 1984, dated 1988)

Tests used:
Format in all cases: in vivo, mice (ddY, male)
[1] = test system: acute liver injury induced by carbon tetrachloride; experiment: Protective effect on acute liver injury induced by carbon tetrachloride (mice, oral): plasma GPT activity and BSP retention; conditions: 6 h before CCl4 (0.05 ml/kg p.o.); for GPT activity: plasma; for Retained BSP: plasma 30 min after BSP 75 mg/kg i.v.
Description: 1. Protective Effect on Acute Liver Injury Induced by Carbon Tetrachloride
A test compound was dissolved or suspended in olive oil and administered orally to mice (ddY mice, .male., 23±2 g, n=5). After 6 hours, carbon tetrachloride (0.05 ml/kg) was administered orally. 24 Hours after the administration of carbon tetrachloride, BSP (sodium sulfobromophthalein; 75 mg/kg) was administered intravenously. Thirty minutes later, the cardiac blood was collected, and GPT (glutamic-pyruvic transaminase) activity and the retention rate of BSP in the plasma were measured.

[2] = Acute toxicity test (oral, mortality 1 week after administration); conditions: mouse, in vivo, mice, in olive oil
Description: (§1) A test compound was suspended in olive oil and administered orally to mice (ddY mice,.male., 23±2 g, n=5 or 6). The actute toxicity value (LD50) was determined from the mortality 1 week after the administration.

mice = experiment: as above
Description: as §1

CCOC(=O)C[N+](C)=c1sccs1.[Cl-] [Compound No. 2, N-(1,3-dithiol-2-ylidene)-N-methyl-N-ethoxycarbonylmethylammonium chloride]
GPT activity ([1]; 1 mg/kg): 3190 ± 412 Karmen units
Retained BSP ([1]; 1 mg/kg): 57.4 ± 12.3 µg/mL
GPT activity ([1]; 5 mg/kg): 192 ± 84 Karmen units
Retained BSP ([1]; 5 mg/kg): 17.1 ± 1.4 µg/mL
LD50 at 168 h [2]: ≥ 1500 mg/kg
acute toxicity (in words) (mice): extremely low toxicity

CN1CC[N+](=c2sccs2)CC1.[O-][Cl+3]([O-])([O-])[O-] [Compound No. 31, 1-(1,3-dithiol-2-ylidene)-4-methylpiperazinium perchlorate]
GPT activity ([1]; 1 mg/kg): 523 ± 111 Karmen units
Retained BSP ([1]; 1 mg/kg): 20.3 ± 3.4 µg/mL
GPT activity ([1]; 5 mg/kg): 148 ± 51 Karmen units
Retained BSP ([1]; 5 mg/kg): 12.6 ± 0.6 µg/mL
LD50 at 168 h [2]: ≥ 1500 mg/kg
acute toxicity (in words) (mice): extremely low toxicity

CCOC(=O)C1CCC[N+]1=c1sccs1.[O-][Cl+3]([O-])([O-])[O-] (stereo not drawn) [Compound No. 41, 1-(1,3-dithiol-2-ylidene)-2-ethoxycarbonyl pyrrolidinium perchlorate]
GPT activity ([1]; 1 mg/kg): 405 ± 73 Karmen units
Retained BSP ([1]; 1 mg/kg): 26.5 ± 3.1 µg/mL
GPT activity ([1]; 5 mg/kg): 165 ± 21 Karmen units
Retained BSP ([1]; 5 mg/kg): 17.9 ± 2.0 µg/mL
LD50 at 168 h [2]: ≥ 1500 mg/kg
acute toxicity (in words) (mice): extremely low toxicity

CCOC(=O)C1CCC[N+](=c2sccs2)C1.[I-] (stereo not drawn) [Compound No. 55, 1-(1,3-dithiol-2-ylidene)-3-ethoxycarbonylpiperidinium iodide]
GPT activity ([1]; 1 mg/kg): 2981 ± 169 Karmen units
Retained BSP ([1]; 1 mg/kg): 83.9 ± 14.1 µg/mL
GPT activity ([1]; 5 mg/kg): 361 ± 49 Karmen units
Retained BSP ([1]; 5 mg/kg): 18.3 ± 4.4 µg/mL
LD50 at 168 h [2]: ≥ 1500 mg/kg
acute toxicity (in words) (mice): extremely low toxicity

CCOC(=O)C1CC[N+](=c2sccs2)CC1.[O-][Cl+3]([O-])([O-])[O-] (stereo not drawn) [Compound No. 56, 1-(1,3-dithiol-2-ylidene)-4-ethoxycarbonylpiperidinium perchlorate]
GPT activity ([1]; 1 mg/kg): 2713 ± 147 Karmen units
Retained BSP ([1]; 1 mg/kg): 76.6 ± 13.1 µg/mL
GPT activity ([1]; 5 mg/kg): 216 ± 32 Karmen units
Retained BSP ([1]; 5 mg/kg): 21.0 ± 13.4 µg/mL
LD50 at 168 h [2]: ≥ 1500 mg/kg
acute toxicity (in words) (mice): extremely low toxicity
